How the values were obtained:
Format in all cases: cell-based
[1] = test system: CCRF-CEM; assay: NCI60 growth inhibition, CCRF-CEM; conditions: Leukemia
Method in brief: (§1)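 Read-out: growth inhibition in the NCI60 screen of 60 cancer cell lines.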

[2] = test system: HL-60(TB); assay: NCI60 growth inhibition, HL-60(TB); conditions: Leukemia
Method in brief: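 Compounds were screened across the NCI60 panel of 60 human cancer cell lines by the National Cancer Institute's Developmental Therapeutics Program, with growth inhibition as the read-out.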

[3] = test system: K-562; assay: NCI60 growth inhibition, K-562; conditions: Leukemia
Method in brief: as §1

[4] = test system: MOLT-4; assay: NCI60 growth inhibition, MOLT-4; conditions: Leukemia
Method in brief: as §1

[5] = test system: RPMI-8226; assay: NCI60 growth inhibition, RPMI-8226; conditions: Leukemia
Method in brief: as §1

[6] = test system: SR; assay: NCI60 growth inhibition, SR; conditions: Leukemia
Method in brief: as §1

[7] = test system: A549/ATCC; assay: NCI60 growth inhibition, A549/ATCC; conditions: Non-Small Cell Lung Cancer
Method in brief: as §1

[8] = test system: EKVX; assay: NCI60 growth inhibition, EKVX; conditions: Non-Small Cell Lung Cancer
Method in brief: as §1

[9] = test system: HOP-62; assay: NCI60 growth inhibition, HOP-62; conditions: Non-Small Cell Lung Cancer; further: test concentration or dose not given here
Method in brief: as §1

[10] = test system: HOP-92; assay: NCI60 growth inhibition, HOP-92; conditions: Non-Small Cell Lung Cancer
Method in brief: as §1

[11] = test system: NCI-H226; assay: NCI60 growth inhibition, NCI-H226; conditions: Non-Small Cell Lung Cancer; further: test concentration or dose not given here
Method in brief: as §1

[12] = test system: NCI-H23; assay: NCI60 growth inhibition, NCI-H23; conditions: Non-Small Cell Lung Cancer
Method in brief: as §1

[13] = test system: NCI-H322M; assay: NCI60 growth inhibition, NCI-H322M; conditions: Non-Small Cell Lung Cancer
Method in brief: as §1

[14] = test system: NCI-H460; assay: NCI60 growth inhibition, NCI-H460; conditions: Non-Small Cell Lung Cancer
Method in brief: as §1

[15] = test system: NCI-H522; assay: NCI60 growth inhibition, NCI-H522; conditions: Non-Small Cell Lung Cancer
Method in brief: as §1

[16] = test system: COLO 205; assay: NCI60 growth inhibition, COLO 205; conditions: Colon Cancer
Method in brief: as §1

[17] = test system: HCC-2998; assay: NCI60 growth inhibition, HCC-2998; conditions: Colon Cancer
Method in brief: as §1

[18] = test system: HCT-116; assay: NCI60 growth inhibition, HCT-116; conditions: Colon Cancer
Method in brief: as §1

[19] = test system: HCT-15; assay: NCI60 growth inhibition, HCT-15; conditions: Colon Cancer; further: test concentration or dose not given here
Method in brief: as §1

[20] = test system: HT29; assay: NCI60 growth inhibition, HT29; conditions: Colon Cancer
Method in brief: as §1

[21] = test system: KM12; assay: NCI60 growth inhibition, KM12; conditions: Colon Cancer; further: test concentration or dose not given here
Method in brief: as §1

[22] = test system: SW-620; assay: NCI60 growth inhibition, SW-620; conditions: Colon Cancer; further: test concentration or dose not given here
Method in brief: as §1

[23] = test system: SF-268; assay: NCI60 growth inhibition, SF-268; conditions: CNS Cancer; further: test concentration or dose not given here
Method in brief: as §1

[24] = test system: SF-295; assay: NCI60 growth inhibition, SF-295; conditions: CNS Cancer; further: test concentration or dose not given here
Method in brief: as §1

[25] = test system: SF-539; assay: NCI60 growth inhibition, SF-539; conditions: CNS Cancer
Method in brief: as §1

[26] = test system: SNB-19; assay: NCI60 growth inhibition, SNB-19; conditions: CNS Cancer; further: test concentration or dose not given here
Method in brief: as §1

[27] = test system: SNB-75; assay: NCI60 growth inhibition, SNB-75; conditions: CNS Cancer; further: test concentration or dose not given here
Method in brief: as §1

[28] = test system: U251; assay: NCI60 growth inhibition, U251; conditions: CNS Cancer
Method in brief: as §1

[29] = test system: LOX IMVI; assay: NCI60 growth inhibition, LOX IMVI; conditions: Melanoma
Method in brief: as §1

[30] = test system: MALME-3M; assay: NCI60 growth inhibition, MALME-3M; conditions: Melanoma
Method in brief: as §1

[31] = test system: M14; assay: NCI60 growth inhibition, M14; conditions: Melanoma
Method in brief: as §1

[32] = test system: MDA-MB-435; assay: NCI60 growth inhibition, MDA-MB-435; conditions: Melanoma
Method in brief: as §1

[33] = test system: SK-MEL-2; assay: NCI60 growth inhibition, SK-MEL-2; conditions: Melanoma; further: test concentration or dose not given here
Method in brief: as §1

[34] = test system: SK-MEL-28; assay: NCI60 growth inhibition, SK-MEL-28; conditions: Melanoma
Method in brief: as §1

[35] = test system: SK-MEL-5; assay: NCI60 growth inhibition, SK-MEL-5; conditions: Melanoma
Method in brief: as §1

[36] = test system: UACC-257; assay: NCI60 growth inhibition, UACC-257; conditions: Melanoma; further: test concentration or dose not given here
Method in brief: as §1

[37] = test system: UACC-62; assay: NCI60 growth inhibition, UACC-62; conditions: Melanoma; further: test concentration or dose not given here
Method in brief: as §1

[38] = test system: IGROV1; assay: NCI60 growth inhibition, IGROV1; conditions: Ovarian Cancer
Method in brief: as §1

[39] = test system: OVCAR-3; assay: NCI60 growth inhibition, OVCAR-3; conditions: Ovarian Cancer
Method in brief: as §1

[40] = test system: OVCAR-4; assay: NCI60 growth inhibition, OVCAR-4; conditions: Ovarian Cancer; further: test concentration or dose not given here
Method in brief: as §1

[41] = test system: OVCAR-5; assay: NCI60 growth inhibition, OVCAR-5; conditions: Ovarian Cancer
Method in brief: as §1

[42] = test system: NCI/ADR-RES; assay: NCI60 growth inhibition, NCI/ADR-RES; conditions: Ovarian Cancer
Method in brief: as §1

[43] = test system: SK-OV-3; assay: NCI60 growth inhibition, SK-OV-3; conditions: Ovarian Cancer
Method in brief: as §1

[44] = test system: 786-0; assay: NCI60 growth inhibition, 786-0; conditions: Renal Cancer
Method in brief: as §1

[45] = test system: A498; assay: NCI60 growth inhibition, A498; conditions: Renal Cancer; further: test concentration or dose not given here
Method in brief: as §1

[46] = test system: ACHN; assay: NCI60 growth inhibition, ACHN; conditions: Renal Cancer
Method in brief: as §1

[47] = test system: CAKI-1; assay: NCI60 growth inhibition, CAKI-1; conditions: Renal Cancer; further: test concentration or dose not given here
Method in brief: as §1

[48] = test system: RXF 393; assay: NCI60 growth inhibition, RXF 393; conditions: Renal Cancer
Procedure: (§2) Representative compounds were tested in 60 cell lines (NCI60) at the National Cancer Institute, Developmental Therapeutics Program.
(§3) Representative compounds were tested in a panel of 60 cancer cells (NCI 60) at the National Cancer Institute. Growth inhibition are shown in table 2, table 3, table 4, table 5, and FIG. 1, FIG. 2, FIG. 3, FIG. 4, FIG. 5.

[49] = test system: SN12C; assay: NCI60 growth inhibition, SN12C; conditions: Renal Cancer
Method in brief: as §1

[50] = test system: TK-10; assay: NCI60 growth inhibition, TK-10; conditions: Renal Cancer
Method in brief: as §1

[51] = test system: UO-31; assay: NCI60 growth inhibition, UO-31; conditions: Renal Cancer
Method in brief: as §1

[52] = test system: PC-3; assay: NCI60 growth inhibition, PC-3; conditions: Prostate Cancer
Method in brief: as §1

[53] = test system: DU-145; assay: NCI60 growth inhibition, DU-145; conditions: Prostate Cancer
Method in brief: as §1

[54] = test system: MCF7; assay: NCI60 growth inhibition, MCF7; conditions: Breast Cancer
Method in brief: as §1

[55] = test system: MDA-MB-231/ATCC; assay: NCI60 growth inhibition, MDA-MB-231/ATCC; conditions: Breast Cancer
Method in brief: as §1

[56] = test system: HS 578T; assay: NCI60 growth inhibition, HS 578T; conditions: Breast Cancer
Method in brief: as §1

[57] = test system: BT-549; assay: NCI60 growth inhibition, BT-549; conditions: Breast Cancer
Procedure: as §2, §3

[58] = test system: T-47D; assay: NCI60 growth inhibition, T-47D; conditions: Breast Cancer
Method in brief: as §1

[59] = test system: MDA-MB-468; assay: NCI60 growth inhibition, MDA-MB-468; conditions: Breast Cancer; further: test concentration or dose not given here
Method in brief: as §1

Compound: CN1CCN(c2ccc3nc4c(nc3c2C(F)(F)F)C(=O)c2ncccc2C4=O)CC1 [Compound 50, 9-(4-methylpiperazin-1-yl)-10-(trifluoromethyl)pyrido[2,3-b]phenazine-5,12-dione]
- Growth inhibition (% control) GIPRCNT [1]: 5.713 % control
- Growth inhibition (% control) GIPRCNT [2]: −50.3957 % control
- Growth inhibition (% control) GIPRCNT [3]: −6.717 % control
- Growth inhibition (% control) GIPRCNT [4]: −36.4229 % control
- Growth inhibition (% control) GIPRCNT [5]: 27.57 % control
- Growth inhibition (% control) GIPRCNT [6]: −27.1607 % control
- Growth inhibition (% control) GIPRCNT [7]: −36.1751 % control
- Growth inhibition (% control) GIPRCNT [8]: 5.133 % control
- Growth inhibition (% control) GIPRCNT [9]: −63.3298 % control
- Growth inhibition (% control) GIPRCNT [10]: 27.5 % control
- Growth inhibition (% control) GIPRCNT [11]: −78.8735 % control
- Growth inhibition (% control) GIPRCNT [12]: −39.656 % control
- Growth inhibition (% control) GIPRCNT [13]: 36.63 % control
- Growth inhibition (% control) GIPRCNT [14]: −56.5637 % control
- Growth inhibition (% control) GIPRCNT [15]: −67.5222 % control
- Growth inhibition (% control) GIPRCNT [16]: −94.9856 % control
- Growth inhibition (% control) GIPRCNT [17]: −26.9174 % control
- Growth inhibition (% control) GIPRCNT [18]: 0.9838 % control
- Growth inhibition (% control) GIPRCNT [19]: −47.4718 % control
- Growth inhibition (% control) GIPRCNT [20]: −55.5144 % control
- Growth inhibition (% control) GIPRCNT [21]: 13 % control
- Growth inhibition (% control) GIPRCNT [22]: 4.709 % control
- Growth inhibition (% control) GIPRCNT [23]: 1.957 % control
- Growth inhibition (% control) GIPRCNT [24]: −61.5894 % control
- Growth inhibition (% control) GIPRCNT [25]: −52.4375 % control
- Growth inhibition (% control) GIPRCNT [26]: 17.8598 % control
- Growth inhibition (% control) GIPRCNT [27]: 5.296 % control
- Growth inhibition (% control) GIPRCNT [28]: 0.9108 % control
- Growth inhibition (% control) GIPRCNT [29]: −50.1492 % control
- Growth inhibition (% control) GIPRCNT [30]: −99.1953 % control
- Growth inhibition (% control) GIPRCNT [31]: −89.6374 % control
- Growth inhibition (% control) GIPRCNT [32]: −91.762 % control
- Growth inhibition (% control) GIPRCNT [33]: −34.5495 % control
- Growth inhibition (% control) GIPRCNT [34]: 5.495 % control
- Growth inhibition (% control) GIPRCNT [35]: −99.7024 % control
- Growth inhibition (% control) GIPRCNT [36]: −82.2969 % control
- Growth inhibition (% control) GIPRCNT [37]: −82.4675 % control
- Growth inhibition (% control) GIPRCNT [38]: −32.57 % control
- Growth inhibition (% control) GIPRCNT [39]: −27.9399 % control
- Growth inhibition (% control) GIPRCNT [40]: −91.1398 % control
- Growth inhibition (% control) GIPRCNT [41]: −90.4043 % control
- Growth inhibition (% control) GIPRCNT [42]: 10.14 % control
- Growth inhibition (% control) GIPRCNT [43]: 29.68 % control
- Growth inhibition (% control) GIPRCNT [44]: 36.69 % control
- Growth inhibition (% control) GIPRCNT [45]: −21.1398 % control
- Growth inhibition (% control) GIPRCNT [46]: −44.1558 % control
- Growth inhibition (% control) GIPRCNT [47]: 33.14 % control
- Growth inhibition (% control) GIPRCNT [48]: 38.36 % control
- Growth inhibition (% control) GIPRCNT [49]: −95.418 % control
- Growth inhibition (% control) GIPRCNT [50]: 80.29 % control
- Growth inhibition (% control) GIPRCNT [51]: −19.0631 % control
- Growth inhibition (% control) GIPRCNT [52]: 8.007 % control
- Growth inhibition (% control) GIPRCNT [53]: −85.7143 % control
- Growth inhibition (% control) GIPRCNT [54]: −57.016 % control
- Growth inhibition (% control) GIPRCNT [55]: −5.992 % control
- Growth inhibition (% control) GIPRCNT [56]: −15.9764 % control
- Growth inhibition (% control) GIPRCNT [57]: −97.0139 % control
- Growth inhibition (% control) GIPRCNT [58]: −28.3961 % control
- Growth inhibition (% control) GIPRCNT [59]: −62.4106 % control

From patent US20220162167A1, “SUBSTITUTED BICYCLIC AND TETRACYCLIC QUINONES AND USE THEREOF AS ANTI-CANCER AGENTS” (THE REGENTS OF THE UNIVERSITY OF MICHIGAN, priority 2019, published 2022)
